Test system: SYO-1 complex spheroid growth, percent test/control
Test: Anticancer human tumor SYO-1 cell line growth inhibition [Asc];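 further: compound exposure lasted 7 days after spheroids grew 3 days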;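 on viability, T/C: 100% = DMSO vehicle control viability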
Conditions: for IC50: curve of first compound; for viability, T/C: stronger effect = lower value; active means viability on the fitted dose curve at most 10% of control; inactive means the rest
Outline: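 Concentration series start at each agent's clinical Cmax, or at 10 microM when none is established, and drop in half-log steps; agents are applied alone or together to complex spheroids built with HUVEC and hMSC.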

[1] = second compound 0.00949 µM, first compound 0.0316 µM
[2] = second compound 0.00949 µM, first compound 0.1 µM
[3] = second compound 0.00949 µM, first compound 0.316 µM
[4] = second compound 0.00949 µM, first compound 1 µM
[5] = second compound 0.00949 µM, first compound 3.16 µM
[6] = second compound 0.00949 µM, first compound 10 µM
[7] = second compound 0.03 µM, first compound 0.0316 µM
[8] = second compound 0.03 µM, first compound 0.1 µM
[9] = second compound 0.03 µM, first compound 0.316 µM
[10] = second compound 0.03 µM, first compound 1 µM
[11] = second compound 0.03 µM, first compound 3.16 µM
[12] = second compound 0.03 µM, first compound 10 µM
[13] = second compound 0.0949 µM, first compound 0.0316 µM
[14] = second compound 0.0949 µM, first compound 0.1 µM
[15] = second compound 0.0949 µM, first compound 0.316 µM
[16] = second compound 0.0949 µM, first compound 1 µM
[17] = second compound 0.0949 µM, first compound 3.16 µM
[18] = second compound 0.0949 µM, first compound 10 µM
[19] = second compound 0.3 µM, first compound 0.0316 µM
[20] = second compound 0.3 µM, first compound 0.1 µM
[21] = second compound 0.3 µM, first compound 0.316 µM
[22] = second compound 0.3 µM, first compound 1 µM
[23] = second compound 0.3 µM, first compound 3.16 µM
[24] = second compound 0.3 µM, first compound 10 µM
[25] = second compound 0.949 µM, first compound 0.0316 µM
[26] = second compound 0.949 µM, first compound 0.1 µM
[27] = second compound 0.949 µM, first compound 0.316 µM
[28] = second compound 0.949 µM, first compound 1 µM
[29] = second compound 0.949 µM, first compound 3.16 µM
[30] = second compound 0.949 µM, first compound 10 µM
[31] = second compound 3 µM, first compound 0.0316 µM
[32] = second compound 3 µM, first compound 0.1 µM
[33] = second compound 3 µM, first compound 0.316 µM
[34] = second compound 3 µM, first compound 1 µM
[35] = second compound 3 µM, first compound 3.16 µM
[36] = second compound 3 µM, first compound 10 µM

C#Cc1c(F)ccc2cc(O)cc(-c3ncc4c(N5CC6CCC(C5)N6)nc(OCC56CCCN5CC(F)C6)nc4c3F)c12 (centres undefined) + CCN1C(C(=O)NC23CCC(C(=O)O)(CC2)CC3)C(c2cccc(Cl)c2F)C2(C(=O)Nc3cc(Cl)ccc32)C12CCCCC2
active: viability, T/C [25] 2.32% | viability, T/C [26] 3.19% | viability, T/C [27] 3.03% | viability, T/C [28] 3.66% | viability, T/C [29] 2.43% | viability, T/C [30] 0.85% | viability, T/C [31] 1.29% | viability, T/C [32] 1.17% | viability, T/C [33] 1.63% | viability, T/C [34] 1.09% | viability, T/C [35] 0.91% | viability, T/C [36] 0.35%
< 0.0316 µM: IC50 (second compound 0.3 µM) | IC50 (second compound 0.949 µM) | IC50 (second compound 3 µM)
inactive: viability, T/C [1] 113% | viability, T/C [2] 95.3% | viability, T/C [3] 101% | viability, T/C [4] 98.1% | viability, T/C [5] 113% | viability, T/C [6] 112% | viability, T/C [7] 99% | viability, T/C [8] 90.1% | viability, T/C [9] 97.2% | viability, T/C [10] 99.3% | viability, T/C [11] 105% | viability, T/C [12] 104% | viability, T/C [13] 84.8% | viability, T/C [14] 81.2% | viability, T/C [15] 88.3% | viability, T/C [16] 85.8% | viability, T/C [17] 86.8% | viability, T/C [18] 79.7% | viability, T/C [19] 26.7% | viability, T/C [20] 24.9% | viability, T/C [21] 21.6% | viability, T/C [22] 20.5% | viability, T/C [23] 21.6% | viability, T/C [24] 13.5%
> 10 µM: IC50 (second compound 0.00949 µM) | IC50 (second compound 0.03 µM) | IC50 (second compound 0.0949 µM)

C=C(F)C(=O)N1CCN(c2nc(OCC3CCCN3C)nc3c2CCN(c2cccc4cccc(Cl)c24)C3)CC1CC#N (centres undefined) + CCN1C(C(=O)NC23CCC(C(=O)O)(CC2)CC3)C(c2cccc(Cl)c2F)C2(C(=O)Nc3cc(Cl)ccc32)C12CCCCC2
5.02 µM: IC50 (second compound 0.00949 µM)
inactive: viability, T/C [1] 101% | viability, T/C [2] 99.9% | viability, T/C [3] 101% | viability, T/C [4] 109% | viability, T/C [5] 83.3% | viability, T/C [7] 96.9% | viability, T/C [8] 95.3% | viability, T/C [9] 101% | viability, T/C [10] 111% | viability, T/C [13] 87.1% | viability, T/C [14] 81% | viability, T/C [15] 83.8% | viability, T/C [16] 88.2% | viability, T/C [19] 31.3% | viability, T/C [20] 27.9% | viability, T/C [21] 22.7% | viability, T/C [22] 23.9%
1.62 µM: IC50 (second compound 0.0949 µM)
< 0.0316 µM: IC50 (second compound 0.3 µM) | IC50 (second compound 0.949 µM) | IC50 (second compound 3 µM)
active: viability, T/C [6] 0.4% | viability, T/C [11] 6.35% | viability, T/C [12] 0.68% | viability, T/C [17] 1.01% | viability, T/C [18] 0.26% | viability, T/C [23] 1.47% | viability, T/C [24] 0.37% | viability, T/C [25] 4.04% | viability, T/C [26] 3.25% | viability, T/C [27] 2.38% | viability, T/C [28] 1.49% | viability, T/C [29] 0.82% | viability, T/C [30] 0.26% | viability, T/C [31] 2.61% | viability, T/C [32] 1.39% | viability, T/C [33] 1.16% | viability, T/C [34] 0.97% | viability, T/C [35] 0.49% | viability, T/C [36] 0.4%
1.86 µM: IC50 (second compound 0.03 µM)

Source: PubChem BioAssay AID1963432 (Molecular Pharmacology Branch, DTP, NCI, 2024)
